Legend:
DBA iPSCs = test: Cytotoxicity (Annexin and DAPI positive cells) at varying doses; type: cell-based, human; details: drug doses up to 20 μM
Description: FIGS. 9A-9D show compounds screened for rescue of erythroid differentiation defects. […] (FIG. 9B) List of compounds screened that provided promising results. (FIG. 9C) FACS plots showing GlyA and CD71 expression levels for indicated genotype (top panels). Micrographs showing GlyA^+ CD71^+ cells in indicated genotype (bottom panels). (FIG. 9D) Plot showing the percentage of Annexin and DAPI positive cells following varying doses of SMER28.

[1] = Dose escalation tolerability in mice; type: in vivo; details: dose escalation up to 20 mg/kg
Description: In following evaluation, the effects of administration of SMER28 to mice with irradiation-induced anemia, a model that enables dose-finding and initial testing of safety and bioactivity. […] To assess bioactivity, we measured the levels of autophagic marker LC3 in treated animals. […] (FIG. 10C). We tested the effect of this compound on human cells by treating NSG mice transplanted with human CD34-5F and CB cells. SMER28 increased the output of GlyA^+ RBCs from DBA CD34-5F cells (FIG. 10D).
Drug treatments. SMER28 was purchased from Tocris and diluted in 10 mM aliquots in DMSO. The final concentration for CD34-5F and CB CD34^+erythroid treatments was 0.2-10 μM as indicated in the text. The final concentration for K562 cell treatments was 20-40 μM. Ferric citrate (1-50 μM) and deferoxamine (100-200 μM) (Sigma) were dissolved in PBS and added on days 0-4 of “expansion” culture, and washed off prior to erythroid stage I (days 4-9) differentiation. For in vivo experiments, SMER28 aliquots were diluted in vehicle solution: 30% PEG-400, 5% propylene glycol, and 0.5% Tween-80. Dosing for human xenograft experiments was 2 mg/kg; for mouse models 10-20 mg/kg. Dexamethasone was purchased as Dex-sodium phosphate (DexSP) water-soluble formulation (Santa Cruz), and diluted in PBS vehicle (1 mg/kg). […]

[2] = system: K562 erythroleukemia cells transduced with shRPS19; test: Autophagy induction (p62, LC3-I, LC3-II protein levels) in K562 cells transduced with shRPS19; type: cell-based, human
Procedure: (FIG. 13A) Induction of autophagy by SMER28 (40 μM) monitored by protein levels of p62, LC3-I, and LC3-II after 24 hours. Cells were also treated with 5-FU (100 nM) to induce autophagy, or inhibitor of transcription actinomycin D (ActD; 100 nM). (FIG. 13B) Induction of autophagy by SMER28 (40 μM) monitored by protein levels of p62, LC3-I, and LC3-II after 24 hours treatment with or without lysosomal blockade with bafilomycin A (200 nM for 4 hours). Untreated samples are shown at higher exposure, to capture dynamic changes in the LC3-II levels. Rapamycin (200 nM) is a positive control. LC3-II levels relative to GAPDH are quantitated on the right. (FIG. 13C) Erythroid differentiation of CD34-5F cells transduced with shRNAs for luciferase (LUC) or ATG5±SMER28. Representative flow plots and quantitation showing the number of erythroid cells induced by SMER28 (10 μM) normalized to DMSO. 2 control luciferase shRNAs and 2 ATG5 shRNAs are included (knockdown efficiency in hematopoietic cells of 58% and 50%, respectively), each with 2 independent lines; p=0.005, 3 independent experiments. (FIG. 13D) Atg5 deficiency causes anemia in zebrafish. Wild-type zebrafish embryos were treated with 1.6 ng atg5 or missense morpholino, and hemoglobin staining was visualized with benzidine staining at 40 hpf with SMER28 (1 μM). Representative images (left), and quantitation (right) with embryos grouped by high, medium, and low levels of benzidine staining.
SMER28 was identified as an mTOR-independent inducer of autophagy, by synergizing with rapamycin to promote clearance of protein aggregates in models of neurodegenerative disease (Sarkar et al., 2007; Tian et al., 2011). Autophagy is a pro-survival pathway induced by a variety of stresses, such as nutrient limitation or protein aggregation. Autophagy is required for clearance of mitochondria during terminal erythroid maturation (Mortensen and Simon, 2010), but has not been linked with earlier stages of erythropoiesis. To determine if SMER28 modulates autophagy in erythroid cells, we interrogated the levels of p62 and LC3 in K562 erythroleukemia cells transduced with shRPS19. SMER28 reduced p62 and increased the levels of […] LC3-II isoform associated with autophagosomes (FIG. 13A). […] To measure autophagic flux, we monitored LC3-II levels after blocking lysosomal fusion with bafilomycin A. SMER28 increased LC3-II levels following lysosomal blockade, similarly to the mTOR inhibitor rapamycin (FIG. 13B).
Drug treatments. SMER28 was purchased from Tocris and diluted in 10 mM aliquots in DMSO. The final concentration for CD34-5F and CB CD34^+erythroid treatments was 0.2-10 μM as indicated in the text. The final concentration for K562 cell treatments was 20-40 μM. […]

Compound: C=CCNc1ncnc2ccc(Br)cc12 [SMER28, 6-Bromo-N-2-propenyl-4-quinazolinam]
- Cytotoxicity (DBA iPSCs): not observed
- tolerability / overt toxicity [1]: well tolerated
- LC3-II levels following lysosomal blockade (autophagic flux) ([2]; SMER28 40 μM 24 hours, bafilomycin A 200 nM for 4 hours): increased
- levels of LC3-II isoform associated with autophagosomes ([2]; SMER28 40 μM, 24 hours): increased
- p62 protein level ([2]; SMER28 40 μM, 24 hours): reduced
